Source: patent US10159640B2, “Prebiotic oral care compositions containing amino acids” (COLGATE-PALMOLIVE COMPANY, priority 2013, dated 2018)

How the values were obtained:
Assay in all cases: Metabolic activity, Biolog phenotype microarray
Format in all cases: cell-based
Conditions in all cases: control without dipeptide = 1
Actinomyces naeslundii = system: Actinomyces naeslundii
Summary of the method: (§1)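 Each species, grown 48 h anaerobically on blood agar, was suspended in IF-0 fluid with tetrazolium Redox Dye D, succinate and ferric citrate, then dispensed onto dipeptide-preloaded plates. Incubated anaerobically at 37° C; OD 492 nm read at 24 and 48 h versus no-dipeptide controls; mean of three biological replicates.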

Streptococcus sobrinus = system: Streptococcus sobrinus
Summary of the method: as §1

Prevotella intermedia = system: Prevotella intermedia
Summary of the method: as §1

Streptococcus sanguinis = system: Streptococcus sanguinis
Summary of the method: as §1

Actinomyces viscosus = system: Actinomyces viscosus
Summary of the method: as §1

Fusobacterium nucleatum = system: Fusobacterium nucleatum
Summary of the method: as §1

Capnocytophaga sputigena = system: Capnocytophaga sputigena
Summary of the method: as §1

Streptococcus gordonii = system: Streptococcus gordonii
Summary of the method: as §1

Streptococcus mitis = system: Streptococcus mitis
Summary of the method: as §1

Veillonella parvula = system: Veillonella parvula
Summary of the method: as §1

[1] = system: Aggregatibacter actinomycetemcomitans
Summary of the method: as §1

Streptococcus mutans = system: Streptococcus mutans
Summary of the method: as §1

Streptococcus salivarius = system: Streptococcus salivarius
Summary of the method: as §1

Tannerella forsythia = system: Tannerella forsythia
Summary of the method: as §1

Porphyromonas gingivalis = system: Porphyromonas gingivalis
Summary of the method: as §1

Substance: Phe-Glu
- metabolic activity: OD 492 nm divided by OD of control (Actinomyces naeslundii; 24 hrs): 0.9642
- metabolic activity: OD 492 nm divided by OD of control (Actinomyces naeslundii; 48 hrs): 0.9466
- metabolic activity: OD 492 nm divided by OD of control (Streptococcus sobrinus; 24 hrs): 1.0354
- metabolic activity: OD 492 nm divided by OD of control (Streptococcus sobrinus; 48 hrs): 1.0539
- metabolic activity: OD 492 nm divided by OD of control (Prevotella intermedia; 24 hrs): 1.0519
- metabolic activity: OD 492 nm divided by OD of control (Prevotella intermedia; 48 hrs): 0.9562
- metabolic activity: OD 492 nm divided by OD of control (Streptococcus sanguinis; 24 hrs): 1.0204
- metabolic activity: OD 492 nm divided by OD of control (Streptococcus sanguinis; 48 hrs): 1.0208
- metabolic activity: OD 492 nm divided by OD of control (Actinomyces viscosus; 24 hrs): 1.3824
- metabolic activity: OD 492 nm divided by OD of control (Actinomyces viscosus; 48 hrs): 2.1224
- metabolic activity: OD 492 nm divided by OD of control (Fusobacterium nucleatum; 24 hrs): 0.9451
- metabolic activity: OD 492 nm divided by OD of control (Fusobacterium nucleatum; 48 hrs): 0.9112
- metabolic activity: OD 492 nm divided by OD of control (Capnocytophaga sputigena; 24 hrs): 2.1428
- metabolic activity: OD 492 nm divided by OD of control (Capnocytophaga sputigena; 48 hrs): 1.7139
- metabolic activity: OD 492 nm divided by OD of control (Streptococcus gordonii; 24 hrs): 0.8472
- metabolic activity: OD 492 nm divided by OD of control (Streptococcus gordonii; 48 hrs): 0.9890
- metabolic activity: OD 492 nm divided by OD of control (Streptococcus mitis; 24 hrs): 1.0644
- metabolic activity: OD 492 nm divided by OD of control (Streptococcus mitis; 48 hrs): 1.1176
- metabolic activity: OD 492 nm divided by OD of control (Veillonella parvula; 24 hrs): 0.8043
- metabolic activity: OD 492 nm divided by OD of control (Veillonella parvula; 48 hrs): 0.7552
- metabolic activity: OD 492 nm divided by OD of control ([1]; 24 hrs): 0.9204
- metabolic activity: OD 492 nm divided by OD of control ([1]; 48 hrs): 0.9345
- metabolic activity: OD 492 nm divided by OD of control (Streptococcus mutans; 24 hrs): 1.0352
- metabolic activity: OD 492 nm divided by OD of control (Streptococcus mutans; 48 hrs): 0.9816
- metabolic activity: OD 492 nm divided by OD of control (Streptococcus salivarius; 24 hrs): 1.0411
- metabolic activity: OD 492 nm divided by OD of control (Streptococcus salivarius; 48 hrs): 0.9959
- metabolic activity: OD 492 nm divided by OD of control (Tannerella forsythia; 24 hrs): 1.0452
- metabolic activity: OD 492 nm divided by OD of control (Tannerella forsythia; 48 hrs): 1.0015
- metabolic activity: OD 492 nm divided by OD of control (Porphyromonas gingivalis; 24 hrs): 0.9806
- metabolic activity: OD 492 nm divided by OD of control (Porphyromonas gingivalis; 48 hrs): 0.9029

Substance: Met-Pro
- metabolic activity: OD 492 nm divided by OD of control (Actinomyces naeslundii; 24 hrs): 1.0381
- metabolic activity: OD 492 nm divided by OD of control (Actinomyces naeslundii; 48 hrs): 1.0427
- metabolic activity: OD 492 nm divided by OD of control (Streptococcus sobrinus; 24 hrs): 1.0338
- metabolic activity: OD 492 nm divided by OD of control (Streptococcus sobrinus; 48 hrs): 1.0538
- metabolic activity: OD 492 nm divided by OD of control (Prevotella intermedia; 24 hrs): 0.9704
- metabolic activity: OD 492 nm divided by OD of control (Prevotella intermedia; 48 hrs): 0.9393
- metabolic activity: OD 492 nm divided by OD of control (Streptococcus sanguinis; 24 hrs): 0.8599
- metabolic activity: OD 492 nm divided by OD of control (Streptococcus sanguinis; 48 hrs): 0.8295
- metabolic activity: OD 492 nm divided by OD of control (Actinomyces viscosus; 24 hrs): 1.5865
- metabolic activity: OD 492 nm divided by OD of control (Actinomyces viscosus; 48 hrs): 2.0588
- metabolic activity: OD 492 nm divided by OD of control (Fusobacterium nucleatum; 24 hrs): 0.8752
- metabolic activity: OD 492 nm divided by OD of control (Fusobacterium nucleatum; 48 hrs): 0.8113
- metabolic activity: OD 492 nm divided by OD of control (Capnocytophaga sputigena; 24 hrs): 2.5077
- metabolic activity: OD 492 nm divided by OD of control (Capnocytophaga sputigena; 48 hrs): 1.8376
- metabolic activity: OD 492 nm divided by OD of control (Streptococcus gordonii; 24 hrs): 1.0870
- metabolic activity: OD 492 nm divided by OD of control (Streptococcus gordonii; 48 hrs): 1.0447
- metabolic activity: OD 492 nm divided by OD of control (Streptococcus mitis; 24 hrs): 1.0020
- metabolic activity: OD 492 nm divided by OD of control (Streptococcus mitis; 48 hrs): 0.9214
- metabolic activity: OD 492 nm divided by OD of control (Veillonella parvula; 24 hrs): 0.7714
- metabolic activity: OD 492 nm divided by OD of control (Veillonella parvula; 48 hrs): 0.6345
- metabolic activity: OD 492 nm divided by OD of control ([1]; 24 hrs): 0.9162
- metabolic activity: OD 492 nm divided by OD of control ([1]; 48 hrs): 0.8616
- metabolic activity: OD 492 nm divided by OD of control (Streptococcus mutans; 24 hrs): 0.9563
- metabolic activity: OD 492 nm divided by OD of control (Streptococcus mutans; 48 hrs): 0.9242
- metabolic activity: OD 492 nm divided by OD of control (Streptococcus salivarius; 24 hrs): 0.9990
- metabolic activity: OD 492 nm divided by OD of control (Streptococcus salivarius; 48 hrs): 0.9500
- metabolic activity: OD 492 nm divided by OD of control (Tannerella forsythia; 24 hrs): 0.9040
- metabolic activity: OD 492 nm divided by OD of control (Tannerella forsythia; 48 hrs): 0.9403
- metabolic activity: OD 492 nm divided by OD of control (Porphyromonas gingivalis; 24 hrs): 1.0029
- metabolic activity: OD 492 nm divided by OD of control (Porphyromonas gingivalis; 48 hrs): 1.0774
